Earlier results as cited in patent US9642356B2, “Maturation or ripening inhibitor release from polymer, fiber, film, sheet or packaging” (Cellresin Technologies, LLC, priority 2009, dated 2017).

How the values were obtained:
[1] = system: ethylene binding site
[2] = system: ethylene generation

| Structure (SMILES) | blocking of ethylene binding [1] | activity for inhibiting ethylene generation [2] |
| --- | --- | --- |
| C1=CCC=C1 [Cyclopentadiene] | effective blocking agent for ethylene binding | – |
| CC1=CC1 [Example 1-MCP, 1-methylcyclopropene] | – | at least some measurable activity |
| C=CCC [Example 1-butene, 1-butene] | – | at least some measurable activity |
